Consider four compounds from patent publication US8022034B2, “Combination therapy for the treatment of diabetes and conditions related thereto and for the treatment of conditions ameliorated by increasing a blood GLP-1 level” (Arena Pharmaceuticals, Inc., priority 2005, dated 2011).

In general, EC50 refers to the concentration that produces a half-maximal response.

The target of test [1] is T1, GPR119 (GLUTag-Fla cells which express GPR119) (Mus musculus, UniProt Q7TQP3).
T1 construct: endogenous in cells; host or cells: GLUTag-Fla (mouse enteroendocrine cell line), membrane preparation
T1 sequence (Q7TQP3 1-335): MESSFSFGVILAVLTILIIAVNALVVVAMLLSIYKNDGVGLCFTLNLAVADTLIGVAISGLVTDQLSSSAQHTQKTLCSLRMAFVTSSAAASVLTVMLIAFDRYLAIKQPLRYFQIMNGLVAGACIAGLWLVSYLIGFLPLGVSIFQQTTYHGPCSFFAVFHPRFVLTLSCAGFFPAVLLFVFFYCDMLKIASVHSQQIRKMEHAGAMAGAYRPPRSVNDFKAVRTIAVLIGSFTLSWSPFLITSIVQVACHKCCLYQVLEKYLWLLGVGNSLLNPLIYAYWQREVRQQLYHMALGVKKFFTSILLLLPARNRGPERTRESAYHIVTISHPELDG
Kind of test: Flash Plate adenylyl cyclase (cAMP) assay with GLUTag-Fla cell membranes. The format is biochemical. The procedure:
(§1) GLUTag is a mouse enteroendocrine cell line that secretes GLP-1 [Brubaker et al., Endocrinology (1998) 139:4108-4114]. The effect of GPR119 agonist on the level of intracellular cAMP in GLUTag (Fla subline) enteroendocrine cells was determined. The Fro subline of GLUTag was used as a negative control.
(§2) GluTag (GLUTag-Fla and GLUTag-Fro) cells were plated at […] in 15-cm tissue culture plate with regular growth medium. On the next day, cells were scraped off with cold Scraping Buffer (20 mM HEPES, 10 mM EDTA, pH7.4) and spinned down at 1000 rpm for 17 mins at 4° C. Cell pellets were washed with cold Membrane Wash Buffer (20 mM HEPES, 0.1 mM EDTA, pH7.4) and spun again as above. […] Protein concentration was determined by Bradford Assay. […]
(§3) The cyclase assay was done with a Flash Plate™ Adenylyl Cyclase kit (New England Nuclear; Cat. No. SMP004A). […] The cAMP generated in the wells can be quantitated by a direct competition for binding of radioactive cAMP tracer to the cAMP antibody.
(§4) Details of the cyclase assay as it was carried out are described here. cAMP standards and Detection Buffer (comprising 1 μCi of tracer [125I]cAMP (50 μl) to 11 ml Detection Buffer) were prepared and maintained in accordance with the manufacturer's instructions. […] Plates were incubated for an additional two hours, after which the samples were counted in a Wallac MicroBeta scintillation counter. […]

In a further test the test system is GLUTag-Fla cells. Put plainly: GLP-1 secretion in GLUTag-Fla cells (GLP-1 Active ELISA). It counts as cell-based, mouse. The conditions noted are these: various concentrations, serum free DMEM with 15 mM glucose, one hour at 37° C. The protocol: GLUTag-Fla cells (see Example 12, supra) were plated in 24-well plates on day one in complete culture medium (DMEM/10% FBS). On day two the culture medium was replaced with a low glucose medium (DMEM/3 mM Glucose/10% FBS). On day three cells were washed twice with 1XPBS. The washed GLUTag-Fla cells were stimulated with GPR119 agonist (AR231453) at various concentrations or with forskolin (1 uM) as a positive control in serum free DMEM with 15 mM glucose for one hour at 37° C. and 5% CO2 in a tissue culture incubator. The supernatants were then collected and clarified by centrifugation at 500 g and 4° C. for 5 minutes. GLP-1 released into the supernatant was determined by ELISA using reagents purchased from LINCO Research Laboratory [Glucagon-Like Peptide-1 (Active) ELISA Kit. Cat. #EGLP-35K].
On the technique in general: In an ELISA, binding on a coated surface is turned into a signal by an enzyme label.

Test [2] has as its system GLUTag-Fro cells which do not express GPR119. Put plainly: Flash Plate adenylyl cyclase (cAMP) assay with GLUTag-Fro cell membranes (negative control). The format is biochemical, mouse. The protocol:
as §1, §2, §3, §4

Test [3] has as its system elevated blood glucose level. Kind of test: Oral glucose tolerance test (oGTT) in mice (Example 1). The format is in vivo. The procedure:
Oral glucose tolerance test (oGTT) in mice was carried out as described here. Overnight fasted mice (n=6 mice per treatment) were administered via oral gavage with vehicle (PET), a GPR119 agonist (AR231453) at 1 mkg (milligram compound per kilogram of body weight), a DPP-IV inhibitor (AR247810) at 0.1 mkg, or a combination of the GPR119 agonist (1 mkg) and the DPP-IV inhibitor (0.1 mkg). Thirty minutes later, a glucose bolus (3 gram/kg) was then delivered per orally. Plasma glucose levels were determined at the indicated time points over a two hour period using blood (˜5 μl) collected from tail nick and a glucose meter. Glycemic excursion curve was graphed based on data from 6 mice and given in mean values+/−SEM (FIG. 1A).

In the next test the test system is blood glucose level. Kind of test: Oral glucose tolerance test (oGTT) in C57BL/6J mice (Example 14). It counts as in vivo. The conditions noted are these: DPP-IV inhibitor alone, 1 mpk oral gavage, one hour before glucose bolus 2 gram/kg. The protocol:
Oral glucose tolerance test (oGTT) in 7-8 week old C57BL/6J mice was carried out as described here. […] GPR119 agonist AR244061 was administered at 10 mpk or 30 mpk (milligram compound per kilogram of body weight). […] One hour after compound dosing, a glucose bolus (2 gram/kg) was delivered per orally, and tail blood samples were collected to measure blood glucose at 0, 30, 60 and 120 minutes. […] For each treatment group, glycemic excursion curve was graphed and is presented with blood glucose concentration given in mean values+/− standard error of the mean (SEM). Area Under Curve (AUC) of the glycemic excursion was calculated and reported as AUC (% of vehicle control).

As to `CC(C)c1noc(C2CCN(c3ncnc(Nc4ccc(S(C)(=O)=O)cc4F)c3[N+](=O)[O-])CC2)n1` [AR231453], the entries for the “Elevation of the level of intracellular cAMP” value in test [1] (GLUTag-Fla cells which express GPR119) and in test [2] were “elevate the level of intracellular cAMP” and “not”, respectively. Further, in test [1] (GLUTag-Fla membranes, eight doses from 10 uM to 1.27 nM, 60 min at room temperature, read-out: EC50 for elevation of cAMP in GLUTag cells), the half-maximal effective concentration (EC50) is about 4.3 nM. Besides, in the test on GLUTag-Fla cells, the “GLP-1 secretion on stimulation” value is given as “secrete GLP-1”. Further, the “AUC inhibition (effective therapeutic response)” value in test [3] (compound alone at significantly higher doses (FIG. 1C, FIG. 1D)) is on record as “around 40%”.

As to `N#C[C@@H]1CCCN1C(=O)CNC12CC3CC(CC(O)(C3)C1)C2` [LAF237, (1-[[3-hydroxy-1-adamantyl)amino]acetyl]-2-cyano-(S)-pyrrolidine], the “Glycemic control in oGTT” value in the test with blood glucose level is on record as “measurable glycemic control”.

`N[C@@H](CC(=O)N1CCn2c(nnc2C(F)(F)F)C1)Cc1cc(F)c(F)cc1F` [MK-0431, 3(R)-Amino-1-[3-(trifluoromethyl)-5,6,7,8-tetrahydro[1,2,4]triazolo[4,3-a]pyrazin-7-yl]-4-(2,4,5-trifluorophenyl)butan-1-one]: the “Glycemic control in oGTT” value in the test on blood glucose level is “measurable glycemic control”.

For the compound “exendin-4: incretin mimetic [reference compound]”, the “AUC inhibition of glycemic excursion” value in test [3] (incretin mimetic in this mouse model, dose not given) is about 60%.
